Data: the NIST ThermoML archive (doi:10.1016/j.jct.2019.03.012)
± gives the expanded uncertainty stated by the source.

Assays:
[1] = Molar enthalpy of transition or fusion; conditions: Crystal 1; DSC
[2] = DSC

Q: With `CC[NH3+].O=[N+]([O-])[O-]` [ethylammonium nitrate] as the compound, how does the “Molar enthalpy of transition or fusion” value [1] read?
A: Its value is 3.15 ± 0.155 kcal/mol.

Q: What about the Triple point temperature ([2]; Crystal 1) of the same compound?
A: Its Triple point temperature is 285.15 ± 6 K.

Q: And the Glass transition temperature ([2]; Glass)?
A: The Glass transition temperature was -41.00 ± 6 °C.
